Patent US11771725B2, “Lactobacillus having various functions, and use thereof” (University-Industry Cooperation Group of Kyung Hee …, priority 2015, dated 2023)

What was measured:
[1] = test system: itching behavior induced by compound 48/80; experiment: Inhibition of itching induced by compound 48/80; assay type: in vivo; details: BALB/c mice, 1×10^9 CFU orally once a day for 3 days (control drugs 0.2 mg/mouse)
Method: At 1 hour after the last administration of the drug, the mice were allowed to stand in an observation cage (24 cm×22 cm×24 cm) for 10 minutes so as to be acclimated to the environment, and then the back portion of the head was shaved. […] Sigma, USA) by a 29-gauge needle. […] Scratching the injection area with the back foot was regarded as the itching behavior, and scratching other portions was not regarded.

[2] = test system: vascular permeability induced by compound 48/80; experiment: Inhibition of vascular permeability induced by compound 48/80 (Evans blue); assay type: in vivo; details: BALB/c mice, 1×10^9 CFU orally once a day for 3 days (control drugs 0.2 mg/mouse)
Method: It is known that itching-induced areas have increased vascular permeability. […] According to the same method as the above-described experiment for measurement of itching inhibitory activity, the drug was administered to the same mice. Next, physiological saline was injected subcutaneously into the back portion of the head of the mice of the normal group, and an itching inducer (50 μg of compound 48/80; Sigma, USA) was injected subcutaneously into the back portion of the head of the mice of the other test group. Next, 0.2 ml of 1% Evans blue solution (Sigma, USA) was injected into the tail vein, and after 1 hour, the mice were euthanized. The skin of the subcutaneously injected area was dissected, and incubated in 1 ml of 1N KOH at 37° C. overnight. On the next day, the incubated skin tissue was mixed with 4 ml of 0.6N phosphoric acid-acetone (5:13) mixture and centrifuged at 3000 rpm for 15 minutes, and the supernatant was collected and measured for absorbance at 620 nm. Inhibition (%) of vascular permeability was calculated using the following equation: Inhibition(%)={1−[absorbance of area treated with drug and itching inducer−absorbance of area not treated with itching inducer]/[absorbance of area treated with itching inducer−absorbance of area not treated with itching inducer]}×100

[3] = test system: RBL-2H3 cell line (rat mast cell line); experiment: Inhibition of degranulation in IgE-sensitized RBL-2H3 cells; assay type: cell-based; details: RBL-2H3, lactic acid bacteria 1×10^4 CFU/ml
Method: The RBL-2H3 cell line (rat mast cell line, the Korean Cell Line Bank, Cat. No. 22256) was cultured with DMEM (Dulbeccos' modified Eagle's medium, Sigma, 22256) containing 10% FBS (fetal bovine serum) and L-glutamine in a humidified 5% CO2 incubator at 37° C. The cells contained in the culture medium were floated using trypsin-EDTA solution, and the floated cells were isolated, collected and used in the experiment. The collected RBL-2H3 cells were dispensed into a 24-well plate at a density of 5×10^5 cells/well and sensitized by incubation with 0.5 μg/ml of mouse monoclonal IgE for 12 hours. The sensitized cells were washed with 0.5 ml of siraganian buffer (119 mM NaCl, 5 mM KCl, 0.4 mM MgCl2, 25 mM PIPES, 40 mM NaOH, pH 7.2), and then incubated with 0.16 ml of siraganian buffer (supplemented with 5.6 mM glucose, 1 mM CaCl2), 0.1% BSA) at 37° C. for 10 minutes. Next, lactic acid bacteria as a test drug were added to the cell culture to a concentration of 1×10^4 CFU/ml, or 0.04 ml of DSCG (disodium cromoglycate) as a control drug was added to the cell culture, and after 20 minutes, the cells were activated with 0.02 ml of antigen (1 μg/ml DNP-BSA) at 37° C. for 10 minutes. […] Next, the reaction was stopped by addition of 0.2 ml of 0.1M Na2CO3/NaHCO3, and the absorbance at 405 nm was measured by an ELISA analyzer.

Compound | Inhibition (%) Itching [1] [%] | Inhibition (%) vascular permeability [2] [%] | Inhibition (%) Degranulation ([3]; first experiment) [%] | Degranulation inhibition (%) ([3]; second experiment)
CN1CCCC(n2nc(Cc3ccc(Cl)cc3)c3ccccc3c2=O)CC1 (stereo not drawn) [Azelastine] | 65 | 68 |  | 
O=C([O-])c1cc(=O)c2c(OCC(O)COc3cccc4oc(C(=O)[O-])cc(=O)c34)cccc2o1.[Na+].[Na+] [DSCG, disodium cromoglycate] | 25 | 37 | 62 | 62
